Measured values from ChEMBL document CHEMBL1255282, “Escherichia coli isolate coproducing 16S rRNA Methylase and CTX-M-type extended-spectrum beta-lactamase isolated from an outpatient in the United States” (2008).
Converted amounts (≈) assume the structure as drawn. The source made the active and inactive calls. No cut-off for these calls is given here.

Legend:
Assay type in all cases: functional
Escherichia coli [1] = assay: Antibacterial activity against Escherichia coli DH10B harboring pBCSK expressing rmtB gene by Etest
Escherichia coli [2] = assay: Antibacterial activity against 16S rRNA methylase RmtB and CTX-M-65 ESBL producing Escherichia coli isolate ECRB1 by Etest
Escherichia coli [3] = assay: Antibacterial activity against 16S rRNA methylase RmtB and CTX-M-65 ESBL producing Escherichia coli DH10B by Etest
Escherichia coli [4] = assay: Antibacterial activity against 16S rRNA methylase rmtB and CTX-M-65 ESBL producing rifampin resistant Escherichia coli isolate ECRB1 by Etest

Molecule: GENTAMICIN
- MIC (Escherichia coli [1]): > 256 µg/mL
- MIC (Escherichia coli [2]): > 256 µg/mL
- MIC (Escherichia coli [3]): > 128 µg/mL
- MIC (Escherichia coli [4]): > 128 µg/mL

Molecule: NC[C@H]1O[C@H](O[C@H]2[C@H](O)[C@@H](O[C@H]3O[C@H](CO)[C@@H](O)[C@H](N)[C@H]3O)[C@H](N)C[C@@H]2N)[C@H](N)C[C@@H]1O [TOBRAMYCIN]
- MIC (Escherichia coli [1]): > 256 µg/mL
- MIC (Escherichia coli [2]): > 256 µg/mL
- MIC (Escherichia coli [3]): ≥ 128 µg/mL
- MIC (Escherichia coli [4]): ≥ 128 µg/mL

Molecule: CO/N=C(\C(=O)N[C@@H]1C(=O)N2C(C(=O)O)=C(COC(C)=O)CS[C@H]12)c1csc(N)n1 [CEFOTAXIME]
- MIC (Escherichia coli [2]): 64 µg/mL (≈ 141 µM)
- MIC (Escherichia coli [3]): 96 µg/mL (≈ 211 µM)
- MIC (Escherichia coli [4]): 96 µg/mL (≈ 211 µM)

Molecule: O=C(O)c1cn(C2CC2)c2cc(N3CCNCC3)c(F)cc2c1=O
- Activity (Escherichia coli [2]): Active

Molecule: NCC[C@H](O)C(=O)N[C@@H]1C[C@H](N)[C@@H](O[C@H]2O[C@H](CN)[C@@H](O)[C@H](O)[C@H]2O)[C@H](O)[C@H]1O[C@H]1O[C@H](CO)[C@@H](O)[C@H](N)[C@H]1O [AMIKACIN]
- MIC (Escherichia coli [1]): > 256 µg/mL
- MIC (Escherichia coli [2]): > 256 µg/mL
- MIC (Escherichia coli [3]): ≥ 128 µg/mL
- MIC (Escherichia coli [4]): ≥ 128 µg/mL
